Measurements: publication PMC6470699, “BcXyl, a β-xylosidase Isolated from Brunfelsia Calycina Flowers with Anthocyanin-β-glycosidase Activity” (International Journal of Molecular Sciences, 2019)

Target: T1, BcXyl (β-xylosidase, anthocyanin-β-glycosidase) (Brunfelsia pauciflora, UniProt A0A6G5NV63)
T1 construct: gene xyl; native purification from stage 2 petals (ammonium sulfate, DEAE, CM); about 72 kDa on SDS-PAGE; cDNA codes for 786 aa with predicted signal peptide 1-27; MS/MS peptides AVSNNFATLMR, LPMTWYPQSYADK, VTQQDLDDTFNPPFK, HYTAYDIDDWK, YEWWSEALHGISYTGPGVK
T1 sequence (A0A6G5NV63 28-785 limits assumed): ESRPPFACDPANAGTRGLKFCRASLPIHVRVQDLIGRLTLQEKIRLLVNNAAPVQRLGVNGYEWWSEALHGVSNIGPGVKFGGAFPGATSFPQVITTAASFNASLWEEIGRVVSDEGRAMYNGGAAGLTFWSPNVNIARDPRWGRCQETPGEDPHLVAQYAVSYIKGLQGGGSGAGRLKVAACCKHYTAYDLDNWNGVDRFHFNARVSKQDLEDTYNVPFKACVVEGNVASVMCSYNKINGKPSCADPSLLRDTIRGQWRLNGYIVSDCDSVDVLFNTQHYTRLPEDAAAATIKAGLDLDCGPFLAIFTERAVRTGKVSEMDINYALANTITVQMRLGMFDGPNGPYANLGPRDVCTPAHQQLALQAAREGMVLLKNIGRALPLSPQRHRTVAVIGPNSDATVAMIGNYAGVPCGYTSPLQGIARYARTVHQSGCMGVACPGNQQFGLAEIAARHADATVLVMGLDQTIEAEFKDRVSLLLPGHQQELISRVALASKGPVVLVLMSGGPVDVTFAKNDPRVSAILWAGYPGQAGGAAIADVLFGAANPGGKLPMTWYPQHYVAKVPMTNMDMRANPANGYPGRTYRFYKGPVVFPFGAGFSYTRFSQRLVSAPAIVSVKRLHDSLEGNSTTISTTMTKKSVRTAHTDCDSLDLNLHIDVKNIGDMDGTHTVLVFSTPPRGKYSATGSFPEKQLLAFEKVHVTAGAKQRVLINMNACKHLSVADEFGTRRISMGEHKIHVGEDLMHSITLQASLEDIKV
Assay: p-nitrophenol release at […] nm
Type: biochemical
Settings: read-out: Residual Activity (%)

remaining activity at 1000 µM: 13.2 ± 0.69%
Compound: O=C(O)[C@H](O)[C@@H](O)[C@H](O)[C@H](O)CO [D-gluconic acid]
